# Measurements: ChEMBL document CHEMBL1123770, “Systematic synthesis and biological evaluation of alpha- and beta-D-lyxofuranosyl nucleosides of the five naturally occurring nucleic acid bases” (1987)
# Columns and labels:
# Mus musculus [1] = species: Mus musculus; test: Number of mice normal, without lesion after HSV-1 infection observed from day 0 to day 3; format: functional
# Mus musculus [2] = species: Mus musculus; test: Number of mice normal, without lesion after HSV-2 infection observed from day 0 to day 3; format: functional
# Mus musculus [3] = species: Mus musculus; test: Number of mice normal, without lesion after HSV-2 infection observed from day 12 to day 20; format: functional
# Mus musculus [4] = species: Mus musculus; test: Survival rate at 20th day expressed as number of mice survived infected with HSV-1; out of 10; format: functional
# Mus musculus [5] = species: Mus musculus; test: Survival rate at 20th day expressed as number of mice survived infected with HSV-2; out of 10; format: functional
# [6] = Inhibitory effect on 196 strain of Herper simplex virus-2 yield, in primary rabbit kidney cell culture 4 ug/mL concentration after 24 hours.; format: functional, Oryctolagus cuniculus
# [7] = Inhibitory effect on 196 strain of Herper simplex virus-2 yield, in primary rabbit kidney cell culture 4 ug/mL concentration after 48 hours.; format: functional, Oryctolagus cuniculus
# [8] = Inhibitory effect on KOS strain of Herper simplex virus-1 yield, in primary rabbit kidney cell culture 0.04 ug/mL concentration after 48 hours.; format: functional, Oryctolagus cuniculus
# [9] = Inhibitory effect on KOS strain of Herper simplex virus-1 yield, in primary rabbit kidney cell culture 0.1 ug/mL concentration after 48 hours.; format: functional, Oryctolagus cuniculus
# [10] = Inhibitory effect on KOS strain of Herper simplex virus-1 yield, in primary rabbit kidney cell culture 0.4 ug/mL concentration after 48 hours.; format: functional, Oryctolagus cuniculus
# [11] = Inhibitory effect on KOS strain of Herper simplex virus-1 yield, in primary rabbit kidney cell culture 1 ug/mL concentration after 48 hours.; format: functional, Oryctolagus cuniculus
# [12] = Inhibitory effect on KOS strain of Herper simplex virus-1 yield, in primary rabbit kidney cell culture 4 ug/mL concentration after 48 hours.; format: functional, Oryctolagus cuniculus
# [13] = Inhibitory effect on KOS strain of Herper simplex virus-1 yield, in primary rabbit kidney cell culture at 0.04 ug/mL concentration after 24 hours; format: functional, Oryctolagus cuniculus
# [14] = Inhibitory effect on KOS strain of Herper simplex virus-1 yield, in primary rabbit kidney cell culture at 0.4 ug/mL concentration after 24 hours; format: functional, Oryctolagus cuniculus
# [15] = Inhibitory effect on KOS strain of Herper simplex virus-1 yield, in primary rabbit kidney cell culture at 1 ug/mL concentration after 24 hours; format: functional, Oryctolagus cuniculus
# [16] = Inhibitory effect on KOS strain of Herper simplex virus-1 yield, in primary rabbit kidney cell culture at 4 ug/mL concentration after 24 hours; format: functional, Oryctolagus cuniculus
# [17] = Inhibitory effect on 196 strain of Herper simplex virus-2 yield, in primary rabbit kidney cell culture 0.04 ug/mL concentration after 24 hours.; format: functional, Oryctolagus cuniculus
# [18] = Inhibitory effect on 196 strain of Herper simplex virus-2 yield, in primary rabbit kidney cell culture 0.04 ug/mL concentration after 48 hours.; format: functional, Oryctolagus cuniculus
# [19] = Inhibitory effect on 196 strain of Herper simplex virus-2 yield, in primary rabbit kidney cell culture 0.1 ug/mL concentration after 24 hours.; format: functional, Oryctolagus cuniculus
# [20] = Inhibitory effect on 196 strain of Herper simplex virus-2 yield, in primary rabbit kidney cell culture 0.1 ug/mL concentration after 48 hours.; format: functional, Oryctolagus cuniculus
# [21] = Inhibitory effect on 196 strain of Herper simplex virus-2 yield, in primary rabbit kidney cell culture 0.4 ug/mL concentration after 24 hours.; format: functional, Oryctolagus cuniculus
# [22] = Inhibitory effect on 196 strain of Herper simplex virus-2 yield, in primary rabbit kidney cell culture 0.4 ug/mL concentration after 48 hours.; format: functional, Oryctolagus cuniculus
# [23] = Inhibitory effect on 196 strain of Herper simplex virus-2 yield, in primary rabbit kidney cell culture 1 ug/mL concentration after 24 hours.; format: functional, Oryctolagus cuniculus
# [24] = Inhibitory effect on 196 strain of Herper simplex virus-2 yield, in primary rabbit kidney cell culture 1 ug/mL concentration after 48 hours.; format: functional, Oryctolagus cuniculus
# Mus musculus [25] = species: Mus musculus; test: Number of mice normal, without lesion after HSV-1 infection observed from day 12 to day 20; format: functional
# [26] = Inhibitory effect on KOS strain of Herper simplex virus-1 yield, in primary rabbit kidney cell culture at 0.1 ug/mL concentration after 24 hours; format: functional, Oryctolagus cuniculus
# HeLa [27] = test: Minimum inhibitory concentration (MIC) required to reduce virus-induced cytopathogenicity by 50% against Coxsackie virus B4 in HeLa cells; format: functional; conditions: Homo sapiens
# HeLa [28] = test: Minimum cytotoxic concentration (MCC) required to cause a microscopically detectable alteration of host cell morphology, when incubated with HeLa cells; format: functional; conditions: Homo sapiens
# Monkey = test: (§1) Minimum inhibitory concentration (MIC) required to reduce virus-induced cytopathogenicity by 50% against forest virus in African green monkey kidney (Vero B)cells; format: functional, Chlorocebus sabaeus; conditions: Cercopithecidae
# [29] = Minimum cytotoxic concentration (MCC) required to cause a microscopically detectable alteration of host cell morphology, when incubated with PRK cells; format: functional; conditions: Oryctolagus cuniculus
# Vero [30] = test: Minimum cytotoxic concentration (MCC) required to cause a microscopically detectable alteration of host cell morphology, when incubated with Vero B cells; format: functional; conditions: Chlorocebus sabaeus
# Vero [31] = test: Minimum inhibitory concentration (MIC) required to reduce virus-induced cytopathogenicity by 50% against Coxsackie virus B4 in African green monkey kidney (Vero B)cells; format: functional, Chlorocebus sabaeus; conditions: Chlorocebus sabaeus; read-out: MIC
# WI-38 [32] = test: Minimum cytotoxic concentration (MCC) required to cause a microscopically detectable alteration of host cell morphology, when incubated with WI-38 cells; format: functional; conditions: Homo sapiens
# WI-38 [33] = test: Minimum inhibitory concentration (MIC) required to reduce virus-induced cytopathogenicity by 50% against Rhinovirus 9 in human diploid (WI-38)cells; format: functional; conditions: Homo sapiens; read-out: MIC
# WI-38 [34] = test: Minimum inhibitory concentration (MIC) required to reduce virus-induced cytopathogenicity by 50% against Rhinovirus-1A in human diploid (WI-38)cells; format: functional
# Vero [35] = test: (§2) Minimum inhibitory concentration (MIC) required to reduce virus-induced cytopathogenicity by 50% against Parainfluenza virus-3 in African green monkey kidney (Vero B)cells; format: functional, Chlorocebus sabaeus; conditions: Chlorocebus sabaeus; read-out: MIC
# Vero [36] = test: Minimum inhibitory concentration (MIC) required to reduce virus-induced cytopathogenicity by 50% against Reo virus-1 in African green monkey kidney (Vero B)cells; format: functional, Chlorocebus sabaeus; conditions: Chlorocebus sabaeus; read-out: MIC
# Vero [37] = test: Minimum inhibitory concentration (MIC) required to reduce virus-induced cytopathogenicity by 50% against Sindbis virus in African green monkey kidney (Vero B)cells; format: functional; conditions: Chlorocebus sabaeus
# Oryctolagus cuniculus [38] = species: Oryctolagus cuniculus; test: Minimum inhibitory concentration (MIC) required to reduce virus-induced cytopathogenicity by 50% against G strain of Herpes simplex virus-2 in primary rabbit kidney cells; format: functional; conditions: Oryctolagus cuniculus; read-out: MIC
# Oryctolagus cuniculus [39] = species: Oryctolagus cuniculus; test: Minimum inhibitory concentration (MIC) required to reduce virus-induced cytopathogenicity by 50% against KOS strain of Herpes simplex virus-1 in primary rabbit kidney cells; format: functional
# HeLa [40] = test: Minimum inhibitory concentration (MIC) required to reduce virus-induced cytopathogenicity by 50% against Vesicular stomatitis virus in HeLa cells; format: functional; conditions: Homo sapiens
# Vero [41] = test: as §1; format: functional; conditions: Chlorocebus sabaeus
# Oryctolagus cuniculus [42] = species: Oryctolagus cuniculus; test: Minimum inhibitory concentration (MIC) required to reduce virus-induced cytopathogenicity by 50% against Vaccinia virus in primary rabbit kidney cells; format: functional; conditions: Oryctolagus cuniculus; read-out: MIC
# Oryctolagus cuniculus [43] = species: Oryctolagus cuniculus; test: Minimum inhibitory concentration (MIC) required to reduce virus-induced cytopathogenicity by 50% against Vesicular stomatitis virus in primary rabbit kidney cells; format: functional
# Human respirovirus 3 = test: as §2; format: functional
# Mus musculus [44] = species: Mus musculus; test: Number of mice with skin lesions plus paralysis, after HSV-1 infection observed from day 12 to day 20; format: functional
# Mus musculus [45] = species: Mus musculus; test: Number of mice dead, after HSV-1 infection observed from day 12 to day 20; format: functional
# Mus musculus [46] = species: Mus musculus; test: Number of mice dead, after HSV-2 infection observed from day 12 to day 20; format: functional
# [47] = Inhibitory effect on 196 strain of Herper simplex virus-2 yield, in primary rabbit kidney cell culture 40 ug/mL concentration after 24 hours.; format: functional, Oryctolagus cuniculus
# [48] = Inhibitory effect on 196 strain of Herper simplex virus-2 yield, in primary rabbit kidney cell culture 40 ug/mL concentration after 48 hours.; format: functional, Oryctolagus cuniculus
# [49] = Inhibitory effect on KOS strain of Herper simplex virus-1 yield, in primary rabbit kidney cell culture 10 ug/mL concentration after 48 hours.; format: functional, Oryctolagus cuniculus
# [50] = Inhibitory effect on KOS strain of Herper simplex virus-1 yield, in primary rabbit kidney cell culture 40 ug/mL concentration after 48 hours.; format: functional, Oryctolagus cuniculus
# [51] = Inhibitory effect on KOS strain of Herper simplex virus-1 yield, in primary rabbit kidney cell culture at 10 ug/mL concentration after 24 hours; format: functional, Oryctolagus cuniculus
# [52] = Inhibitory effect on KOS strain of Herper simplex virus-1 yield, in primary rabbit kidney cell culture at 40 ug/mL concentration after 24 hours; format: functional, Oryctolagus cuniculus
# [53] = Inhibitory effect on 196 strain of Herper simplex virus-2 yield, in primary rabbit kidney cell culture 10 ug/mL concentration after 24 hours.; format: functional, Oryctolagus cuniculus
# [54] = Inhibitory effect on 196 strain of Herper simplex virus-2 yield, in primary rabbit kidney cell culture 10 ug/mL concentration after 48 hours.; format: functional, Oryctolagus cuniculus
SMILES,No. of mice (Mus musculus [1]),No. of mice (Mus musculus [2]),No. of mice (Mus musculus [3]),Survival rate (Mus musculus [4]),Survival rate (Mus musculus [5]),Virus yield [6],Virus yield [7],Virus yield [12],Virus yield [16],No. of mice (Mus musculus [25]),MIC (HeLa [27]),MCC (HeLa [28]),MCC [29],MCC (Vero [30]),MIC (Vero [31]),MCC (WI-38 [32]),MIC (WI-38 [33]),MIC (WI-38 [34]),MIC (Vero [36]),MIC (Vero [37]),also measured
Nc1nc2c(ncn2COCCO)c(=O)[nH]1 [ACYCLOVIR],10,10,5,10,5,<2 log pfu ml-1,3.8 log pfu ml-1,3.3 log pfu ml-1,2 log pfu ml-1,10,–,–,–,–,–,–,–,–,–,–,Virus yield [8]: 5.9 log pfu ml-1; Virus yield [9]: 5.6 log pfu ml-1; Virus yield [10]: 5 log pfu ml-1; Virus yield [11]: 5.3 log pfu ml-1; Virus yield [13]: 5.6 log pfu ml-1; Virus yield [14]: 4.1 log pfu ml-1; Virus yield [15]: 3.6 log pfu ml-1; Virus yield [17]: 5.8 log pfu ml-1; Virus yield [18]: 5.7 log pfu ml-1; Virus yield [19]: 4.8 log pfu ml-1; Virus yield [20]: 5.6 log pfu ml-1; Virus yield [21]: 4.1 log pfu ml-1; Virus yield [22]: 5 log pfu ml-1; Virus yield [23]: 3.1 log pfu ml-1; Virus yield [24]: 5.3 log pfu ml-1; Virus yield [26]: 5.2 log pfu ml-1
Cc1cn([C@@H]2O[C@H](CO)[C@H](O)[C@@H]2O)c(=O)[nH]c1=O,–,–,–,–,–,–,–,–,–,–,> 400 µg/mL,> 400 µg/mL,> 400 µg/mL,> 400 µg/mL,> 400 µg/mL,> 400 µg/mL,> 150 µg/mL,> 400 µg/mL,> 400 µg/mL,> 400 µg/mL,MIC (Monkey): > 400 µg/mL; MIC (Vero [35]): > 400 µg/mL; MIC (Oryctolagus cuniculus [38]): > 400 µg/mL; MIC (Oryctolagus cuniculus [39]): > 400 µg/mL
Nc1nccc2c1ncn2[C@@H]1C[C@H](CO)[C@@H](O)[C@H]1O [3-DEAZAARISTEROMYCIN A],–,–,–,–,–,–,–,–,–,–,> 400 µg/mL,> 400 µg/mL,> 400 µg/mL,> 400 µg/mL,0.04 µg/mL,> 400 µg/mL,> 400 µg/mL,> 400 µg/mL,1 µg/mL,70 µg/mL,MIC (HeLa [40]): 0.7 µg/mL; MIC (Vero [41]): > 200 µg/mL; MIC (Oryctolagus cuniculus [38]): 150 µg/mL; MIC (Oryctolagus cuniculus [39]): > 400 µg/mL; MIC (Oryctolagus cuniculus [42]): 0.7 µg/mL; MIC (Oryctolagus cuniculus [43]): 0.2 µg/mL; MIC (Human respirovirus 3): 0.7 µg/mL
Nc1ncnc2c1ncn2[C@@H]1O[C@H](CO)[C@@H](O)[C@H]1O [ADENOSINE],10,10,3,4,3,5 log pfu ml-1,5.7 log pfu ml-1,6.8 log pfu ml-1,6.7 log pfu ml-1,3,–,–,–,–,–,–,–,–,–,–,No. of mice (Mus musculus [44]): 1; No. of mice (Mus musculus [45]): 6; No. of mice (Mus musculus [46]): 7; Virus yield [47]: <1.6 log pfu ml-1; Virus yield [48]: 4.3 log pfu ml-1; Virus yield [49]: 6.8 log pfu ml-1; Virus yield [50]: 5.5 log pfu ml-1; Virus yield [51]: 5.7 log pfu ml-1; Virus yield [52]: 3 log pfu ml-1; Virus yield [53]: 4.7 log pfu ml-1; Virus yield [54]: 5.2 log pfu ml-1
